Results reported in patent publication US20050148514A1, “Method and composition for treatment of angiogenesis” (priority 2003, published 2005).
Entries after “also recorded” stand apart in the source; their conditions may differ. Where no end group is shown, it is not given here.

Assays:
ERK [1] = test: Intrinsic effect on ERK phosphorylation (western blot); type: cell-based
Description: In order to investigate the potential intracellular pathways triggered by the PCK3145 derivative, a gene-reporter assay using the SEAP (Secreted Alkaline Phosphatase) Mercury Profiling Kit (CLONTECH) was performed in glioma cells (U-87). This assay enables the monitoring of transcription factors that are triggered by a particular experimental condition by assaying the alkaline phosphatase activity in the extracellular media. […] The induction of the MAPK pathway by the PCK3145 derivative is further confirmed by the rapid and transient induction of ERK phosphorylation between 5-10 minutes (FIG. 8B) and is shown to be dose-dependent (FIG. 8C). Finally, the effects of the PCK3145 derivative were also compared to those of a scrambled peptide.

ERK [2] = test: Growth factor-induced ERK phosphorylation in HUVEC (western blot); type: cell-based, Human
Description: (§1) Cell culture. Human umbilical vein endothelial cells (HUVEC) and pulmonary aortic smooth muscle cells (PASMC) were obtained from Clonetics and maintained in endothelial cell basal medium-2, (EBM-2; Clonetics) and smooth muscle medium-2 (SmGM-2; Clonetics), respectively. Cells were cultured at 37° C. under a humidified atmosphere containing 5% CO2. For experimental purposes, cells were plated in 8 100-mm plastic dishes at 5,000 cells/cm^2 and were grown to confluence before overnight serum starvation. Cells were treated with vehicle or with a PCK3145 derivative diluted in 0.1 N NaOH, and stimulated with 50 ng/ml VEGF, PDGF or with 1 μM S1P.
Immunoprecipitation and immunoblotting procedures. After treatment, cells were washed once with phosphate-buffered saline (PBS) containing 1 mM sodium orthovanadate and were incubated in the same medium for 1 h at 4° C. The cells were solubilized on ice in lysis buffer (150 mM NaCl, 10 mM Tris-HCl, pH 7.4, 1 mM EDTA, 1 mM EGTA, 0.5% Nonidet P-40, 1% Triton X-100) containing 1 mM sodium orthovanadate. The cells were then scraped from the culture dishes and the resulting lysates were clarified by centrifugation at 10,000 g for 10 min. Protein concentrations were determined using the micro bicinchoninic acid method. For immunoprecipitation studies, lysates were clarified by a 1 h incubation at 4° C. with a mixture of Protein A/Protein G Sepharose beads. After removal of the Sepharose beads by low-speed centrifugation, identical amounts of protein (200 μg) from each sample were transferred to fresh tubes and incubated in lysis buffer overnight at 4° C. in the presence of 2 μg/ml of specific antibodies. Immunocomplexes were collected by incubating the mixture with 25 μl (50% suspension) of Protein A—(rabbit primary antibody) or Protein G—(mouse primary antibody) Sepharose beads, for 2 h. Nonspecifically-bound material was removed by washing the beads three times in 1 ml of lysis buffer containing 1 mM sodium orthovanadate, and bound material was solubilized in 25 μl of two-fold concentrated Laemmli sample buffer, boiled 5 min, and resolved by SDS-PAGE. The proteins were transferred onto polyvinylidene difluoride (PVDF) membranes, blocked 1 h at room temperature with Tris-buffered saline/Tween 20 (147 mM NaCl, 20 mM Tris/HCl, pH 7.5, and 0.1% Tween 20) containing 2% bovine serum albumin and incubated overnight at 4° C. with primary antibody.
VEGF is a strong activator of ERKs (Extracellular-signal-Regulated protein Kinases) 1 and 2 via VEGF receptor 2. In order to test the ability of the PCK3145 derivative in potentially antagonizing VEGF-mediated ERK phosphorylation, serum-starved quiescent endothelial cells (HUVEC) were incubated with vehicle (phosphate-buffered saline (PBS) pH 7.4) or PCK3145 derivative (300 μg/ml) for 24 h and then stimulated with VEGF, bFGF (basic Fibroblast Growth Factor) or S1P (sphingosine-1-phosphate). Cells were washed with PBS containing NaF/Na3VO4 and incubated in the same medium buffer for 1 h at 4° C. The cells were scraped from the culture dishes and the resulting lysates clarified by centrifugation. Western blotting and immunodetection using anti-phosphoERK and anti-ERK antibodies was then performed.

proMMP-2 = test: Gelatin zymography of conditioned media of serum-starved HUVEC; type: cell-based, Human; conditions: 300 μg/ml, 24 hours
Description: Zymography. Zymography is a technique generally used to analyze the activity of matrix metalloproteinases (MMPs) in biological samples. It involves the electrophoretic separation of proteins under denaturing (Sodium Dodecyl Sulfate (SDS)) but non-reducing conditions through a polyacrylamide gel containing gelatin (for example, 10% gel containing 1 mg/ml gelatin for MMP-9 and MMP-2 assays). The resolved proteins are re-natured by exchanging SDS with a non-ionic detergent such as Triton X-100 and the gel is incubated in an incubation buffer for activation of MMP-2 and MMP-9 (for example at 37° C. for 18 hrs). The gel is stained with Coomassie blue and the MMP-2 and MMP-9 bands may be visualized as clear bands against a blue background (i.e., the MMPs degrade the gelatin and are visualized as clear bands; pro MMP-2 is 68 kDa and pro-MMP-9 is 92 kDa). These bands can be quantified using densitometry.
Cell culture. Human umbilical vein endothelial cells (HUVEC) and pulmonary aortic smooth muscle cells (PASMC) were obtained from Clonetics and maintained in endothelial cell basal medium-2, (EBM-2; Clonetics) and smooth muscle medium-2 (SmGM-2; Clonetics), respectively. […]
The effect of the PCK3145 derivative (SEQ ID NO.:7) on MMP extracellular levels was assessed by gelatin-zymography in the conditioned media of serum-starved HUVEC. […]

ERK [3] = test: PDGF-induced ERK phosphorylation in PASMC; type: cell-based; conditions: treatment as for HUVEC
Description: as §1
(§2) Immunoprecipitation and immunoblotting procedures. After treatment, cells were washed once with phosphate-buffered saline (PBS) containing 1 mM sodium orthovanadate and were incubated in the same medium for 1 h at 4° C. The cells were solubilized on ice in lysis buffer (150 mM NaCl, 10 mM Tris-HCl, pH 7.4, 1 mM EDTA, 1 mM EGTA, 0.5% Nonidet P-40, 1% Triton X-100) containing 1 mM sodium orthovanadate. The cells were then scraped from the culture dishes and the resulting lysates were clarified by centrifugation at 10,000 g for 10 min. Protein concentrations were determined using the micro bicinchoninic acid method. For immunoprecipitation studies, lysates were clarified by a 1 h incubation at 4° C. with a mixture of Protein A/Protein G Sepharose beads. […]

PDGF receptor (PDGFR) = target: T1, PDGF receptor (PDGFR) (Homo sapiens, UniProt P09619); test: PDGF-induced PDGFR phosphorylation in PASMC; type: cell-based; conditions: treatment as for HUVEC
T1 construct: host or cells: PASMC (pulmonary aortic smooth muscle cells)
T1 sequence (P09619 33-1106): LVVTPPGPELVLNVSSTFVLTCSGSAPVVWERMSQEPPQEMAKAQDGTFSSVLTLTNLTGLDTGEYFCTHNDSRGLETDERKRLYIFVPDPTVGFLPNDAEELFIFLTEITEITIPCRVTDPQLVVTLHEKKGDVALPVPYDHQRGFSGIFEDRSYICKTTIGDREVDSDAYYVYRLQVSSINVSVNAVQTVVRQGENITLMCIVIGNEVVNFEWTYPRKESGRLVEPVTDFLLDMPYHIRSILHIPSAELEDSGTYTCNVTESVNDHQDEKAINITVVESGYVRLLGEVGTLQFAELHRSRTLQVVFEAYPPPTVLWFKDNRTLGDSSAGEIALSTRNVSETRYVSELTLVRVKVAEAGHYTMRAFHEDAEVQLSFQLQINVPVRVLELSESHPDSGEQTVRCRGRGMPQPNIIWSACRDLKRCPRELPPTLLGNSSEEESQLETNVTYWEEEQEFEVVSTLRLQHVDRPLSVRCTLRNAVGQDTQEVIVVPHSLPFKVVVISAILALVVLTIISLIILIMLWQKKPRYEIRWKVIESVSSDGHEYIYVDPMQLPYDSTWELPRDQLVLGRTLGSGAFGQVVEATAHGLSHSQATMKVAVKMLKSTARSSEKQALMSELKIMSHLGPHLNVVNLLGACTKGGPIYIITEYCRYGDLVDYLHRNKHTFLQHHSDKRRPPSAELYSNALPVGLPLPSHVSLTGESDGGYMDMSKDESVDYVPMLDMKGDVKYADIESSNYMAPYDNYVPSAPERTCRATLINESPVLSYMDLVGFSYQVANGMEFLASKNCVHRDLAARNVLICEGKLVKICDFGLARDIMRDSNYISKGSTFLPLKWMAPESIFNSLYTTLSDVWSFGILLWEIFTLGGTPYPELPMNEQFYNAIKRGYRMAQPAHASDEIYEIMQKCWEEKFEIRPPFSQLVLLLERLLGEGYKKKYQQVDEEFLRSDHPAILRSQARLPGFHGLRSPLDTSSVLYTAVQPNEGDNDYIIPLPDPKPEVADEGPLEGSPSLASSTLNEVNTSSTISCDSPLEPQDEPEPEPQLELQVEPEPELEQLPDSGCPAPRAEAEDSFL
Description: as §1, §2

Sequence: EWQTDNCETCTCYET (cysteine pairing not given here)
- dose dependence of induction of ERK phosphorylation (ERK [1]; dose-response): dose-dependent
- time of rapid and transient induction of ERK phosphorylation (ERK [1]; time-course, no growth factor): 5 to 10 min
- time-course of effect on VEGF-induced ERK phosphorylation (ERK [2]; HUVEC, 3 and 24 hrs): necessity of a long term action
- total amount of ERK (ERK [2]; HUVEC, each sample of cells): unaffected
- dose-response of ERK phosphorylation by VEGF (ERK [2]; HUVEC, increasing doses): gradually inhibit
- ERK phosphorylation induced by VEGF (ERK [2]; serum-starved HUVEC, 300 μg/ml for 24 h, then VEGF): specific inhibitory effect; also recorded: comparable to that of PD98059
- ERK phosphorylation induced by bFGF (ERK [2]; serum-starved HUVEC, 300 μg/ml for 24 h, then bFGF): not that induced by bFGF
- inhibition of VEGF-induced proMMP-2 secretion (proMMP-2): approximately 50%
- PDGF-induced ERK phosphorylation (ERK [3]): inhibition
- PDGFR phosphorylation induced by PDGF (PDGF receptor (PDGFR)): inhibition
